Molecular target: p300 (Homo sapiens, UniProt Q09472)
Type: binding

Sequence of p300 (Q09472 323-423): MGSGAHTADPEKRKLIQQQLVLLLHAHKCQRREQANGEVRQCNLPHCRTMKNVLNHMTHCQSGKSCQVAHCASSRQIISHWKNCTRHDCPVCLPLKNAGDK
Sequence of p300 (Q16665 786-826 partner): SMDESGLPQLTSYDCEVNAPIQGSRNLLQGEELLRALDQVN

IC50: ~75 µM
SMILES: COc1ccc(C2(O)N=C3N=CC=C4c5ccccc5N=C2N43)cc1 (racemic) [compound 1, eudistidine A]
